Three molecules from the NIST ThermoML archive (doi:10.1021/acs.jced.8b00552) can be followed below.

± gives the expanded uncertainty stated by the source.

The conditions of data set [1]: Liquid, Ebulliometric method (Recirculating still).
A short description of data set [2]: refractive index (Na D-line) (dimensionless). As to conditions: 293.15 K; 101.33 kPa; Liquid; Standard Abbe refractometry.

In the case of `CC(C)CO` [2-methyl-1-propanol], the “vapor or sublimation pressure” value in data set [1] (332.65 K) came out at 12.17 ± 0.63 kPa; in data set [1] (342.63 K), 20.07 ± 0.63 kPa; in data set [1] (349.06 K), 26.53 ± 0.64 kPa. For the same molecule, in data set [2], the refractive index was 1.3957 ± 0.002.
In the case of `CCC(C)=O` [butanone], the “vapor or sublimation pressure” value in data set [1] (332.65 K) was found to be 51.76 ± 0.63 kPa; in data set [1] (333.65 K), 52.42 ± 0.63 kPa; in data set [1] (342.63 K), 72.71 ± 0.7 kPa; in data set [1] (343.55 K), 74.79 ± 0.7 kPa; in data set [1] (348.55 K) it was 88.29 ± 0.79 kPa; in data set [1] (349.06 K), 90.1 ± 0.79 kPa. Further, the refractive index in data set [2] was 1.3791 ± 0.002.
As to `CCCCCO` [pentan-1-ol], the entries for the “vapor or sublimation pressure” value in data set [1] (333.65 K), in data set [1] (343.55 K) and in data set [1] (348.55 K) were 3.43 ± 0.62 kPa, 5.9 ± 0.62 kPa and 7.67 ± 0.62 kPa, respectively. In data set [2], the refractive index was 1.41 ± 0.002.

Usually vapor or sublimation pressure stands for the equilibrium pressure above the liquid or solid. The term refractive index denotes the speed of light in vacuum divided by its phase velocity in the sample.
